From publication PMC4981864, “Novel pH-Sensitive Cyclic Peptides” (Scientific Reports, 2016)

Legend:
[1] = Steady-state tryptophan fluorescence and CD with and without POPC liposomes; format: physicochemical
Method: (§1) Large unilamellar vesicles (LUVs) were prepared by extrusion. POPC, 1-palmitoyl-2-oleoyl-sn-glycero-3-phosphocholine (Avanti Polar Lipids), or a mixture of POPC with 0.5% of 18:1 NBD-PE, 1,2-dioleoyl-sn-glycero-3-phosphoethanolamine-N-7-nitro-2-1,3-benzoxadiazol-4-yl ammonium salt (Avanti Polar Lipids) were dissolved in chloroform, desolvated on a rotary evaporator, and dried under high vacuum for several hours. The phospholipid film was then rehydrated in 10 mM phosphate buffer pH 8.0, vortexed until the lipid bilayer was completely dissolved, and repeatedly (15–21 times) extruded through the membranes with 50 nm pore sizes to obtain LUVs.
Freshly prepared peptides and POPC vesicles were mixed to have 5 μM of a peptide and 1.25 mM of lipids in the final solution. Steady-state fluorescence measurements were carried out on a PC1 spectrofluorometer (ISS, Inc.) under temperature control at 25 °C. Tryptophan fluorescence was excited at 280 nm (there is no Phe or Tyr in the peptides) and recorded with the excitation and emission slits set at 1 nm. The polarizers in the excitation and emission paths were set at the “magic” angle (54.7° from the vertical orientation) and vertically (0°), respectively. Steady state CD measurements were carried out in MOS 450 spectropolarimeter (Bio-Logic, Inc.) with the same concentrations of peptide and lipids used in fluorescence measurements.

[2] = Lipid titration, peptide-membrane partition model, Gibbs free energy; format: physicochemical; settings: 5 μM peptide, varying 50 nm POPC liposomes
Method: Samples containing 5 μM of peptides at pH 8 and pH 3, and varying concentrations of lipids of the 50 nm POPC liposomes were prepared. The fluorescence spectra of peptides in all samples were measured at 280 nm excitation at 25 °C. A series of POPC blanks with the same concentrations of lipids were measured with the same instrument settings and were subtracted from the corresponding fluorescence spectra of peptides in the presence of POPC. The areas under the emission spectra were calculated and the values were normalized to the first point (the emission of the peptide in the absence of POPC). The titration data were fitted by the peptide-membrane partition model to calculate the mole-fraction partition coefficient, K
where F0 is the fluorescence intensity at zero concentration of lipids (in our case F0 = 1); ΔF if the fluorescence increase in the result of the titration with lipids; Clipids is the concentration of lipids; W is the molar concentration of water (55.3 M). Nonlinear least squares curve fitting procedure using Levenberg-Marquardt algorithm was implemented in Origin 8.5.0 SR1. The Gibbs free energy (ΔG) was calculated according to the equation: […]
where R is the gas constant and T is the temperature in Kelvin.

[3] = Calculated weak-acid distribution Ci/Ce between inner and outer leaflets; settings: pKa 5.7
Source text: Thus, cyclic peptides could be considered as a weak acid with multiple protonatable groups, which can diffuse across the bilayer. For weak acids, the intracellular-extracellular distribution, Ci/Ce, should be calculated according to the following equation: […]
where pHi and pHe are the intracellular and extracellular pH values, respectively. Since the cyclic peptides have affinity to the membrane, we consider Ci and Ce as the concentrations of the peptide on inner and outer leaflets, respectively. […] However, the same ratio increases to 4.5, 7.8, and 10.9 if extracellular pHe would be 6.5, 6.2 and 6.0, respectively. We assume that the symmetrical WE peptides have the same mechanism of action as an asymmetric peptide, however they have less favorable localization of Trp and Glu residues, which reduces their ability to accumulate at the inner leaflet of bilayer of cellular membranes and target acidic tumors. Leu-containing peptides are less advantageous due to their reduced affinity to the headgroup part of the bilayer and high affinity to the center of the membrane.

[4] = format: physicochemical; settings: pH 8
Method: as §1
pH-dependent partitioning of the peptides into a lipid bilayer of the membrane was investigated by the shift of the position of the fluorescence spectral maximum for the peptides in the presence POPC liposomes induced by a drop of pH from 8 to 2.5 by the addition of HCl. The peptides were incubated overnight with 50-nm POPC liposomes (final concentration of the peptides and POPC in solution was 5 μM and 1 mM, respectively), and pH decrease was achieved by the addition of aliquots of 4, 2, 1 and 0.1 M HCl. pH was measured by micro-electrode probe (Thermo Electron Corporation, Orion Ross Micro pH electrode). Fluorescence spectra were recorded at each pH value. The spectra were analyzed by the decomposition algorithms using on-line PFAST toolkit[47] (Protein Fluorescence and Structural Toolkit: http://pfast.phys.uri.edu/) to establish the position of the emission maximum. Finally, the positions of the fluorescence spectral maxima (λmax) were plotted versus pH, and the Henderson–Hasselbalch equation was used to fit the data (using Origin 8.5 software): […]
where [drawing 3] and [drawing 4] are the beginning and the end of the transition, respectively, and pKa – is the midpoint of the transition.

## O=C(O)CC[C@@H]1NC(=O)[C@H](CS)NC(=O)[C@H](Cc2c[nH]c3ccccc23)NC(=O)[C@H](Cc2c[nH]c3ccccc23)NC(=O)[C@H](Cc2c[nH]c3ccccc23)NC(=O)[C@H](Cc2c[nH]c3ccccc23)NC(=O)[C@H](Cc2c[nH]c3ccccc23)NC(=O)[C@H](CCC(=O)O)NC(=O)[C@H](CCC(=O)O)NC(=O)[C@H](CCC(=O)O)NC1=O [c[E4W5C]]
[1]; peptide in phosphate buffer pH 8, no liposomes, 5 μM peptide, excitation 280 nm, 25 °C
  maximum position of the fluorescence spectrum λmax, Pep, pH8: 350.6±0.2 nm
[1]; with POPC liposomes pH 3, 5 μM peptide, 1.25 mM lipids, excitation 280 nm, 25 °C
  maximum position of the fluorescence spectrum λmax, Pep-PC, pH3: 340.2±0.4 nm
[1]; with POPC liposomes pH 3, normalized on area for peptide at pH 8 in absence of POPC
  S, normalized area under the spectra, Pep-PC, pH3: 2.4±0.5
[1]; with POPC liposomes pH 8, 5 μM peptide, 1.25 mM lipids, excitation 280 nm, 25 °C
  maximum position of the fluorescence spectrum λmax, Pep-PC, pH8: 342.8±0.4 nm
[1]; with POPC liposomes pH 8, normalized on area for peptide at pH 8 in absence of POPC
  S, normalized area under the spectra, Pep-PC, pH8: 2.4±0.3
[2]; pH 3 versus pH 8, 25 °C
  additional free energy released at low pH: about 0.7 kcal/mol
[2]; pH 8, 25 °C, partition model
  free energy released on partitioning into the lipid bilayer at pH 8: About 7.3 kcal/mol
[3]; pHe 6.0, pHi = 7.2
  concentration ratio at the inner and outer leaflets, Ci/Ce: 10.9
[3]; pHe 6.2, pHi = 7.2
  concentration ratio at the inner and outer leaflets, Ci/Ce: 7.8
[3]; pHe 6.5, pHi = 7.2
  concentration ratio at the inner and outer leaflets, Ci/Ce: 4.5
[3]; pHe = 7.4, pHi = 7.2
  concentration ratio at the inner and outer leaflets, Ci/Ce: 0.6
[4]
  apparent pK (pKa) of peptide's partitioning into the bilayer: 5.7
